The values below come from US20060205787A1, “Methods and compositions using 4-amino-2-(3-methyl-2,6-dioxopiperidin-3-yl)-isoindole-1,3-dione” (priority 2005, published 2006).

What is called melting point is the temperature, or range, at which the solid turns liquid. `C[C@]1(N2C(=O)c3cccc(N)c3C2=O)CCC(=O)NC1=O` [Example 5.1.11, (3S)-4-Amino-2-(3-Methyl-2,6-Dioxopiperidin-3-yl)-Isoindole-1,3-Dione] had a melting point of 235 to 237 °C.
The compound `C[C@]1(N2C(=O)c3cccc(NC(=O)CN)c3C2=O)CCC(=O)NC1=O.Cl` showed a melting point of over 260 °C.
`CC1(N2C(=O)c3cccc(NC(=O)CN)c3C2=O)CCC(=O)NC1=O.Cl` (stereo not drawn) yielded a melting point of 111 to 113 °C.
